Paper PMC9586895, “Esomeprazole and apixaban pharmacokinetic interactions in healthy rats” (Heliyon, 2022)
Where two headings read alike, the source gives them in different places.

What was measured:
[1] = cited from earlier work
[2] = Pharmacokinetic study in Wistar rats, plasma levels by HPLC/MS, non-compartmental analysis; type: in vivo; conditions: for bioavailability: read-out: absolute bioavailability (F); for AUC(0-t): read-out: AUC0–24; for Cpmax: rat plasma
Procedure: The column is ACE C8 (50 ∗ 4.6) mm, particle size 5 μm (Supercell), and AP 13C as the internal standard. […] The chromatographic conditions of Ap and ESO analysis were as follows: The HPLC system: […] Detector: API 4000, Applied Biosystems, MDS SCIEX; computer system: […] Data Management Software: […] Column: ACE C8, (50 ∗ 4.6) mm, particle size 5 μm; Flow Rate: 650 μL/min; Injection Volume: 1 μL; […] Expected retention time: […] The ethical committee approved the study protocol of the High Research Council, Faculty of Pharmacy of the […] University, and the study was carried out in the animal house of the university. […] They were divided into five groups, each of 6 rats. Group 1 ([…].V sterile solution (5 mg/kg) in D.W containing 5% ethanol. Group 2 (G2) was given AP as sterile I.V solution (125 mcg/kg) in D.W containing 10% ethanol. […] All rats fasted overnight with access only to water. […] Blood samples were drawn into an EDTA tube and immediately centrifuged at 14,000 rpm for 7 min. Plasma was obtained and placed into a labeled Eppendorf tube and stored at […] until analysis. After constructing the Cp vs. t profile by plotting the average plasma concentration of each drug in ng/mL vs. time in hours, the pharmacokinetics was performed using Non-Compartmental Analysis (NCA) using WinNonlin® (Version 8.1).

[3] = test system: plasma protein, mainly albumin; conditions: cited from earlier work
P-gp = test system: P-gp; set-up: method as in PMID 11770010; conditions: cited from earlier work
[4] = IV (ESO 5 mg/kg; AP 125 mcg/kg)
[5] = Wistar, rat, plasma, iv, IV (ESO 5 mg/kg; AP 125 mcg/kg)
[6] = Wistar, rat, plasma, iv, IV (ESO 5 mg/kg; AP 125 mcg/kg), NCA, read-out: Kel (app) (converted)
[7] = Wistar, rat, plasma, iv, read-out: Vd
[8] = Wistar, rat, plasma, po, ESO 5 mg/kg + AP 250 mcg/kg in combination
[9] = Wistar, rat, plasma, po, ESO 5 mg/kg + AP 250 mcg/kg in combination, NCA, read-out: Kel (app) (converted)
[10] = Wistar, rat, plasma, po, given alone (ESO 5 mg/kg; AP 250 mcg/kg)
[11] = Wistar, rat, plasma, po, given alone (ESO 5 mg/kg; AP 250 mcg/kg), NCA, read-out: Kel (app) (converted)
[12] = oral, ESO 5 mg/kg + AP 250 mcg/kg in combination
[13] = oral, given alone (ESO 5 mg/kg; AP 250 mcg/kg)

| SMILES | AUMC0–24 [2, 4] [ng.h^2/mL] | AUMC0–∞ [2, 4] [ng.h^2/mL] | clearance ([2]; Wistar, rat, plasma, iv) [mL/min] | AUC(0-inf) [2, 5] [ng·h/mL] | MRT inf [2, 5] [h] | half-life [2, 5] [h] | k el [2, 6] [s⁻¹] | AUC(0-t) [2, 5] [ng·h/mL] | Vd [2, 7] [L] | AUC(0-inf) [2, 8] [ng·h/mL] | MRT inf [2, 8] [h] | Tmax [2, 8] [h] | half-life [2, 8] [h] | k el [2, 9] [s⁻¹] | AUC(0-t) [2, 8] [ng·h/mL] | AUC(0-inf) [2, 10] [ng·h/mL] | MRT inf [2, 10] [h] | Tmax [2, 10] [h] | k el [2, 11] [s⁻¹] | AUC(0-t) [2, 10] [ng·h/mL] | other results |
| --- | --- | --- | --- | --- | --- | --- | --- | --- | --- | --- | --- | --- | --- | --- | --- | --- | --- | --- | --- | --- | --- |
| COc1ccc(-n2nc(C(N)=O)c3c2C(=O)N(c2ccc(N4CCCCC4=O)cc2)CC3)cc1 [AP, 1-(4-methoxyphenyl)-7-oxo-6-[4-(2-oxopiperidin-1-yl)phenyl]-4,5-dihydropyrazolo [3,4-c]pyridine-3-carboxamide] | 8164.8 ± 78.3 | 28975.07 ± 2364 | 0.3 ± 0.08 | 1340 ± 120 | 21.5 ± 1.5 | 14.9 ± 1.8 | 1.29e-05 | 894 ± 80.6 | 0.4 ± 0.09 | 1560 ± 78 | 14 ± 0.21 | 1 ± 0.32 | 9.6 ± 0.144 | 1.99e-05 | 1270 ± 63.3 | 1540 ± 54 | 24 ± 0.24 | 6 ± 1.09 | 1.17e-05 | 959 ± 38.4 | excreted in the urine as unchanged drug [1]: 25%; excreted into the bile as unchanged drug [1]: 56%; share of total absorption in the distal part and the descending colon [1]: 55%; volume of distribution ([1]; mainly extracellular fluids ref 14): 21 L; bioavailability ([1]; no noticeable effect of food ref 12): around 50%; bioavailability ([2]; Wistar, rat, plasma, 250 mcg/kg, oral vs IV, drug given alone, F=AUCoral/AUCiv∙Doseiv/Doseoral): 42 ± 1%; half-life [2, 10]: 16.6 ± 0.99 h; AUMC0–24 [2, 12]: 10320.5 ± 516 ng.h^2/mL; AUMC0–∞ [2, 12]: 21710.2 ± 215.1 ng.h^2/mL; Vd [2, 12]: 2.1 ± 0.015 L; Cpmax [2, 12]: 98.6 ± 12.6 ng/mL; AUMC0–24 [2, 13]: 9517 ± 475.8 ng.h^2/mL; AUMC0–∞ [2, 13]: 37101 ± 742.2 ng.h^2/mL; Cl [2, 13]: 0.54 ± 0.03 mL/min; Vd [2, 13]: 0.779 ± 0.032 L; Cpmax [2, 13]: 57.2 ± 5.3 ng/mL; bound to plasma protein ([3]; mainly albumin ref 14): 87–90% |
| COc1ccc2[nH]c([S+]([O-])Cc3ncc(C)c(OC)c3C)nc2c1 (stereo not shown) [ESO, 5-methoxy-2-{[(4-methoxy-3,5-dimethylpyridin-2-yl)methyl]sulfinyl}-1H-benzimidazole] | 35805 ± 826 | 40322.6 ± 1256 | 3.7 ± 0.7 | 5450 ± 118 | 7.4 ± 0.95 | 4.8 ± 0.8 | 3.94e-05 | 5120 ± 120 | 1.5 ± 0.15 | 3410 ± 45.9 | 8.6 ± 0.13 | 4 ± 0.55 | 5.9 ± 0.236 | 3.22e-05 | 3250 ± 160 | 4510 ± 226 | 6.4 ± 0.128 | 2 ± 0.156 | 4.08e-05 | 4380 ± 218 | volume of distribution ([1]; adults ref 6, 7): 16 to 18 L; bioavailability ([1]; after 20 or 40 mg delayed-release tablets ref 6, 7): about 90%; P-gp inhibitor strength (P-gp): moderate to potent P-gp inhibitor; half-life ([2]; Wistar, rat, in vivo, po): 4.7 ± 0.14 h; bioavailability ([2]; Wistar, rat, plasma, oral): 62 ± 1.5%; k el ([2]; Wistar, rat, plasma, po, 5 mg/kg, oral ESO 5 mg/kg alone, read-out: elimination rate constant calculated from late concentrations of the plasma level time profile (linear model) (converted)): 4.53e-05 s⁻¹; decrease of AUC when given with AP ([2]; oral ESO 5 mg/kg with AP 250 mcg/kg vs alone): 25%; extrapolated area to infinity as share of the total area ([2]; oral ESO alone): about 13%; extrapolated area to infinity as share of the total area ([2]; oral ESO in combination with AP): 20%; AUMC0–24 [2, 12]: 23544.9 ± 309 ng.h^2/mL; AUMC0–∞ [2, 12]: 29430.9 ± 1473 ng.h^2/mL; Cl [2, 12]: 4.8 ± 0.14 mL/min; Vd [2, 12]: 2.4 ± 0.09 L; Cpmax [2, 12]: 387.9 ± 23.5 ng/mL; AUMC0–24 [2, 13]: 24658.6 ± 206.5 ng.h^2/mL; AUMC0–∞ [2, 13]: 29094.1 ± 1454.7 ng.h^2/mL; Vd [2, 13]: 1.41 ± 0.07 L; Cpmax [2, 13]: 695.9 ± 25.8 ng/mL; plasma protein binding ([3]; mainly to albumin ref 6, 7): about 97% |
